This note sets out measurements from ChEMBL document CHEMBL3797108, “Design, synthesis and in vitro biological evaluation of a small cyclic peptide as inhibitor of vascular endothelial growth factor binding to neuropilin-1” (Bioorg Med Chem Lett, 2016).

In data set [1] the target is Neuropilin-1 (Rattus norvegicus) (UniProt Q9QWJ9). As to the kind of experiment: Inhibition of (bt)-VEGF165 binding to purified recombinant rat NRP1/Fc chimera at 0.3 uM measured after overnight incubation by ELISA method. On the technique in general: ELISA stands for enzyme-linked immunosorbent assay.
Data set [2] shares this target. The data set is described as follows: Inhibition of (bt)-VEGF165 binding to purified recombinant rat NRP1/Fc chimera at 10 uM measured after overnight incubation by ELISA method.
For data set [3], the system named is MDA-MB-231. The data set is described as follows: Toxicity against human MDA-MB-231 assessed as reduction in cell viability at 200 to 1000 uM incubated for 96 hrs by MTS assay. The format is cell-based. The settings on record: mda-mb-231, 96 h. On the technique in general: Tetrazolium assays rely on reduction of a dye to a coloured formazan, in cell work by metabolically active cells.

Data set [4] concerns the target Neuropilin-1 (Rattus norvegicus) (UniProt Q9QWJ9). The data set is described as follows: Inhibition of (bt)-VEGF165 binding to purified recombinant rat NRP1/Fc chimera at 0.1 uM measured after overnight incubation by ELISA method.
Data set [5] shares this target. The data set is described as follows: Inhibition of (bt)-VEGF165 binding to purified recombinant rat NRP1/Fc chimera at 3 uM measured after overnight incubation by ELISA method.
Another data set has as its target Neuropilin-1 (Rattus norvegicus, UniProt Q9QWJ9). As to the kind of experiment: (§1) Inhibition of (bt)-VEGF165 binding to purified recombinant rat NRP1/Fc chimera measured after overnight incubation by ELISA method.
The target in data set [6] is Neuropilin-1 (Rattus norvegicus) (UniProt Q9QWJ9). Described as §1.
For data set [7] the target is unchanged. As to the kind of experiment: Inhibition of (bt)-VEGF165 binding to purified recombinant rat NRP1/Fc chimera at 1 uM measured after overnight incubation by ELISA method.
For data set [8] the target is unchanged. The data set is described as follows: Inhibition of (bt)-VEGF165 binding to purified recombinant rat NRP1/Fc chimera at 100 uM measured after overnight incubation by ELISA method.
The target is the same in data set [9]. The data set is described as follows: Inhibition of (bt)-VEGF165 binding to purified recombinant rat NRP1/Fc chimera at 0.01 uM measured after overnight incubation by ELISA method.
The subject of data set [10] is HUVEC. The data set is described as follows: Toxicity against HUVEC assessed as reduction in cell viability at 200 to 1000 uM incubated for 24 hrs by MTS assay. The format is cell-based. The following applies: human.
Data set [11] deals with MDA-MB-231. As to the kind of experiment: Toxicity against human MDA-MB-231 assessed as reduction in cell viability at 200 to 1000 uM incubated for 24 hrs by MTS assay. The format is cell-based. The following applies: mda-mb-231, 24 h.
In data set [12] the target is Neuropilin-1 (Rattus norvegicus) (UniProt Q9QWJ9). The data set is described as follows: Inhibition of (bt)-VEGF165 binding to purified recombinant rat NRP1/Fc chimera measured after overnight incubation by ELISA method relative to A7R.
Data set [13] concerns HUVEC. As to the kind of experiment: Toxicity against HUVEC assessed as reduction in cell viability at 200 to 1000 uM incubated for 96 hrs by MTS assay. It is filed as cell-based. The following applies: human.

The source made the active and inactive calls. The calls are words filed in the database; no cut-off is given here. Positions of bridges follow the written chain, without caps; N, C: chain ends. Residues, ends and D or L forms follow the SMILES beside them. Where only a bound is given, the exact number is not on record here.

By inhibition is commonly meant the percentage by which the read-out fell short of the control. For orientation: IC50 means the concentration that inhibits the measured activity by half. Take `N=C(N)NCCC[C@H](NC(=O)[C@@H]1CCC(=O)NCCCC[C@H](N)C(=O)N2CCC[C@H]2C(=O)N1)C(=O)O` (H-KPER-OH; lactam 1-3): the inhibition was 61.7% in data set [1]; 94.7% in [2]; 35.5% in data set [4]; 86.7% in [5]; “Dose-dependent effect” in [6]; 76.5% in [7]. Moreover, the values for the inhibition in data set [8] and in data set [9] were 100% and 3.1%, respectively. Besides, the Activity result with MDA-MB-231 [3], with HUVEC [10], in the data set with MDA-MB-231 [11] and with HUVEC [13] was “Non-toxic” in each case. For the same compound, at Neuropilin-1, the concentration for half-maximal inhibition (IC50) was 0.18 µM. Besides, the Ratio IC50 in data set [12] is < 30.
H-ATWLPPR-OH: the inhibition in [1] came to 14.6%; in [2] it was 61%; in data set [4], 2.9%; in [5], 38.1%; in data set [7], 24.4%. Besides, the IC50 at Neuropilin-1 was determined as 5.86 µM. The inhibition entry in [9] was “inactive”.
